The subject of one assay is E. coli K99. In outline:
(§1)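 Peptides were serially diluted in 0.2% BSA and added to mid-logarithmic cells diluted in MHB to 0.5–1 × 10^6 CFU mL^–1. Assays followed an adapted NCCLS protocol.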

A further assay deals with E. coli K88. The gist of the method: as §1
In another assay the test system is S. epidermidis 12228. The class given is cell-based, Staphylococcus epidermidis. As to conditions: 12228, 24 h. In outline:
(§2)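 Bacteria were grown to mid-log phase and diluted in MHB to 0.5–1 × 10^6 CFU mL^–1. Serial peptide dilutions in 0.2% BSA were added at equal volume and plates incubated 24 h at 37°C. Growth inhibition of 95% at 492 nm defined the MIC.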

Another assay deals with P. aeruginosa ATCC 27853. The class given is cell-based, Pseudomonas aeruginosa. As to conditions: after 30 sequential passages in sub-MBC concentrations. The method, then: Finally, P. aeruginosa ATCC 27853 was used as the model of the drug resistance study. […] The MBC values of the drugs against every two passage’s cells were tested. As a control, MBCs were also tested using cells that were serially passaged in fresh MHB without drugs. The assay was conducted independently in triplicate with three biological replicates.

A further assay has as its system E. coli 25922. Description: Time-kill kinetics. As to conditions: 1 × MIC concentration (Figure 5 legend: 1× MBC); mean of three independent experiments. The class given is cell-based, Escherichia coli. An excerpt: The kinetics of the sterilization activity of the peptide was further evaluated. […] The results of the kinetic were the mean values of three independent experiments, and each independent experiment contained three technical replicates.

Another assay has as its system B. subtilis 63501. Format: cell-based, Bacillus subtilis. As to conditions: 63501, 24 h. In outline: as §2
The test system of the next assay is S. aureus 29213. Format: cell-based, Staphylococcus aureus. Conditions: 29213, 24 h. In outline:
as §2

The subject of a further assay is S. aureus 25923. The class given is cell-based, Staphylococcus aureus. Conditions: 25923, 24 h. The gist of the method:
as §2

For another assay, the system named is MRSA 43300. Format: cell-based, methicillin-resistant S. aureus. The gist of the method:
as §2

Assay [1] concerns Gram-negative bacteria. As to conditions: geometric mean of MBCs, 9 Gram-negative strains (Table 2).
Assay [2] in a line: LPS binding assay (BODIPY-TR-cadaverine displacement). Conditions: 1 h 37°C. Also noted: species or system Escherichia coli. The method, then:
A BODIPY-TR-cadaverine (BC Sigma, United States) displacement assay was used to determine the abilities of the peptides to bind LPS ([Ma et al., 2015]); in this assay, a probe bound to cell-free LPS was self-quenched but fluoresced upon release into solution. The LPS from E. coli O111:B4 (50 μg/mL) was incubated with a BODIPY-TR-cadaverine (5 μg/mL) in Tris buffer (50 mM, pH 7.4) for 4 h. Subsequently, equal volumes of the LPS-probe solution and the peptides (1–64 μM) were incubated in a sterile 96-well black plate for 1 h at 37°C, and the fluorescence was measured on a spectrofluorophotometer (the Infinite 200 pro, Tecan, China) at excitation and emission wavelengths of 580 nm and 620 nm, respectively. Each test was performed independently in triplicate. The values were converted to %ΔF (AU) using the following equation:
where Fobs is the observed fluorescence at a given peptide concentration, F0 is the initial fluorescence of BC with LPS in the absence of peptides, and F100 is the BC fluorescence with LPS cells upon the addition of 10 μg mL^–1 polymyxin B, a prototype LPS binder serving as the positive control.

In assay [3] the test system is Gram-positive bacteria. Conditions: geometric mean of MBCs, 7 Gram-positive strains (Table 2).
For assay [4], the system named is Gram-positive bacteria. As to conditions: for TI, Gram-positive bacteria: therapeutic index TI = MHC/GM MIC. In outline:
(§3)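 MIC is the lowest peptide concentration giving 95% growth inhibition, read at 492 nm after 24 h incubation at 37°C. Peptides were serially diluted in 0.2% BSA and added to mid-logarithmic cells at 0.5–1 × 10^6 CFU mL^–1 in MHB, following a modified NCCLS method, with more than 3 repeats.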

For assay [5], the system named is Gram-negative bacteria. As to conditions: for TI, Gram-negative bacteria: therapeutic index TI = MHC/GM MIC. In outline: as §3
The test system of the next assay is E. coli ATCC 25922. Briefly: Cytoplasmic membrane depolarization (DiSC3-5). The class given is cell-based, Escherichia coli. As to conditions: DiSC3-5 release, at all concentrations. As to the method: Mid-log phase E. coli ATCC 25922 cells (OD600 = 0.05) were incubated with 0.4 μM DiSC3-5 and 100 mM K ^+ in 5 mM HEPES buffer (pH 7.4, containing 20 mM glucose) until a steady decrease in fluorescence was achieved. The background fluorescence (excitation λ = 622 nm, emission λ = 670 nm) was recorded with an F-4500 fluorescence spectrophotometer (Hitachi, Japan). Subsequently, 2 mL of the cell suspension was added to a 1-cm quartz cuvette and mixed with various concentrations of peptide. The change in fluorescence in C-1, C-2, and C-3 was recorded from 0 to 1,000, 2,000, and 2,500 s, respectively.

Where [6] appears, read: MHB, 24 h 37°C, 95% growth inhibition.
Setting [7] is: value in brackets, >99.9% of cells killed.
The mark [8] stands for this setting: geometric mean of MICs (Table 3).

Like-named read-outs stand apart in the source and are kept apart here. Where no end group is shown, it is not given here.

These results are taken from PMC7725003, “Systematically Studying the Optimal Amino Acid Distribution Patterns of the Amphiphilic Structure by Using the Ultrashort Amphiphiles” (Frontiers in Microbiology, 2020).

Usually MIC stands for the smallest concentration in the dilution series that meets the test's criterion for growth inhibition. Broadly, the MBC is the lowest tested concentration that kills the bacteria rather than only halting them. In the case of RLRLRLRLL-NH2 [L5], the minimal inhibitory concentration (MIC) against E. coli K99 (setting [6]) was 4 µM; in the assay on E. coli K88 (setting [6]), 2 µM; in the assay on S. epidermidis 12228, 8 µM; with B. subtilis 63501, 1 µM; in the assay with S. aureus 29213, 8 µM; against S. aureus 25923, 8 µM. For the same substance, the MIC against MRSA 43300 (setting [6]) is 8 µM. The MBC in the assay with E. coli K99 (setting [7]) amounted to 8 µM; against E. coli K88 (setting [7]), 4 µM; in the assay with S. epidermidis 12228, 16 µM; against B. subtilis 63501 it was 2 µM; with S. aureus 29213, 16 µM; in the assay with S. aureus 25923, 16 µM. Besides, the MBC with MRSA 43300 (setting [7]) came out at 16 µM. The resistance development entry in the assay with P. aeruginosa ATCC 27853 is on record as “minimal”. Also, the “time to obliterate the growth of 99.99% of bacteria” value with E. coli 25922 is at most 3 min. Also, the “GM MBC” value amounted to 6.35 µM with Gram-negative bacteria [1] and 11.89 µM in the assay on Gram-positive bacteria [3]. The substance also yielded an LPS binding efficiency in [2] (at 16 μM peptide) of around 80%. Moreover, the “GM MIC” value in the assay with Gram-positive bacteria [4] (geometric mean of MICs, 7 Gram-positive strains (Table 2)) amounted to 5.94 µM; in the assay on Gram-negative bacteria [5] (geometric mean of MICs, 9 Gram-negative strains (Table 2)), 3.17 µM. In addition, the “TI, Gram-positive bacteria” value in the assay on Gram-positive bacteria [4] is on record as 43.10. Besides, the “TI, Gram-negative bacteria” value in the assay on Gram-negative bacteria [5] was determined as 80.76.

With RWRWRWRWW-NH2 [W5], in the assay on E. coli ATCC 25922, the “time to cytoplasmic membrane depolarization / highest fluorescence intensity” value is at most 300 s. Also, the MBC was determined as 4 µM against S. epidermidis 12228; 2 µM against B. subtilis 63501; 4 µM against S. aureus 29213; 4 µM in the assay with S. aureus 25923; 4 µM in the assay with MRSA 43300 (43300, 24 h). For the same substance, the MIC in the assay on S. epidermidis 12228 turned out to be 2 µM; against B. subtilis 63501 it was 1 µM; against S. aureus 29213 it was 2 µM; in the assay on S. aureus 25923, 2 µM; with MRSA 43300 (43300, 24 h) it was 2 µM. Further, the resistance development entry in the assay with P. aeruginosa ATCC 27853 is on record as “minimal”. In the assay on E. coli 25922, the “time to obliterate the growth of 99.99% of bacteria” value is reported as at most 0.25 min. The substance further came in with an LPS binding efficiency in assay [2] (at 32 μM peptide) of around 80%. In the assay with Gram-positive bacteria [4] (setting [8]), the “GM, Gram-positive bacteria” value came out at 2.00 µM. Also, in the assay with Gram-positive bacteria [4], the “TI, Gram-positive bacteria” value was 128.00. Besides, the “GM, Gram-negative bacteria” value with Gram-negative bacteria [5] (setting [8]) was found to be 2.72 µM. The “TI, Gram-negative bacteria” value in the assay with Gram-negative bacteria [5] is 94.12.
